{
  "source": "patent US20260335300A1",
  "about": "“Synthetic Nicotine Analogue Formulation For Nicotine Replacement and Amplication” (priority 2023, published 2026)",
  "key": {"[1]": {"conditions": "background statement, cited from earlier work; for satisfaction and 'throat-hit' sensation: novel tobacco products; for satisfaction in oral and nasal products: novel oral and nasal nicotine products"}, "in vivo": {"test": "in vivo", "conditions": "rat, po"}, "rats [2]": {"test_system": "rats", "conditions": "acute oral"}, "[3]": {"test": "Chemical stability in air / exposure to atmosphere for 24 hours, discoloration, blending", "assay_type": "physicochemical"}, "[4]": {"test": "Solubility in appropriate solvents", "assay_type": "physicochemical", "conditions": "in the appropriate solvents"}, "mice [5]": {"test_system": "mice", "conditions": "mouse, in vivo"}, "mice [6]": {"test_system": "mice", "conditions": "comparison value; cited from earlier work"}, "rats [7]": {"test_system": "rats", "conditions": "comparison value; cited from earlier work"}},
  "data": [
    {"compound": "CN1CCCC1c1cccnc1", "note": "(racemic) [racemic nicotine]", "values": [
      {"measurement": "satisfaction and 'throat-hit' sensation", "setting": "[1]", "result": "does not induce the distinctive satisfaction and ‘throat-hit’ sensation"}
    ]},
    {"compound": "Cc1ccc([C@H]2CCCN2C)cn1", "note": "[(R)-6-Methylnicotine, reference compound]", "values": [
      {"measurement": "efficacy as nicotine analogue and flavor", "setting": "enantiomer, no test described", "result": "not effective as a nicotine analogue, and contributes to unpleasant flavors"}
    ]},
    {"compound": "Cc1ccc([C@@H]2CCCN2C)cn1.O=C(O)c1ccccc1", "note": "[(S)-6-Methylnicotine benzoate]", "values": [
      {"measurement": "LD50", "setting": "in vivo", "result": "120 to 215", "unit": "mg/kg"},
      {"measurement": "reduction in toxicity versus nicotine on an equivalent effective use basis", "setting": "rats [2]; equivalent effective use basis", "result": "2 order of magnitude"},
      {"measurement": "toxicity relative to nicotine", "setting": "rats [2]; versus nicotine", "result": "half to one quarter as toxic"}
    ]},
    {"compound": "Cc1ccc([C@@H]2CCCN2C)cn1", "note": "[(S)-6-Methylnicotine, (S)-2-methyl-5-(1-methylpyrrolidin-2-yl)pyridine]", "values": [
      {"measurement": "chemical stability compared to nicotine", "setting": "[3]; degradation and discoloration", "result": "more chemically stable than nicotine, and resists degradation and discoloration"},
      {"measurement": "lifetime in the air relative to nicotine", "setting": "[3]; in the air, versus nicotine, may potentially", "result": "≤ 5", "unit": "times"},
      {"measurement": "stability when blended with other compounds", "setting": "[3]; versus nicotine, blended with other compounds", "result": "more stable than nicotine when blended with other compounds"},
      {"measurement": "resistance to higher temperatures", "setting": "[3]; versus nicotine, may", "result": "may be able to resist higher temperatures"},
      {"measurement": "relief from cravings / subjective hit sensation", "setting": "in words", "result": "induces a subjective “hit” sensation which satisfies cravings"},
      {"measurement": "onset of action compared to nicotine", "setting": "preliminary, versus nicotine", "result": "may be faster acting"},
      {"measurement": "solubility", "setting": "[4]", "result": "acceptable for all of the aforementioned applications"},
      {"measurement": "reduction of oral toxicity versus nicotine", "setting": "mice [5]", "result": "~3 order of magnitude"},
      {"measurement": "toxicity compared to nicotine, in words", "setting": "mice [5]; po", "result": "both less toxic, and can be used in lower amounts than nicotine"}
    ]},
    {"compound": "COC(=O)C1=CCCN(C)C1", "note": "[arecoline]", "values": [
      {"measurement": "satisfaction in oral and nasal products", "setting": "[1]", "result": "limited satisfaction due to a lack of satisfactory sensations"},
      {"measurement": "satisfaction and 'throat-hit' sensation", "setting": "[1]", "result": "lack of satisfaction and ‘throat-hit’ sensation"}
    ]},
    {"compound": "O=c1cccc2n1C[C@@H]1CNC[C@H]2C1", "note": "[cytisine]", "values": [
      {"measurement": "satisfaction in oral and nasal products", "setting": "[1]", "result": "limited satisfaction due to a lack of satisfactory sensations"},
      {"measurement": "satisfaction and 'throat-hit' sensation", "setting": "[1]", "result": "lack of satisfaction and ‘throat-hit’ sensation"}
    ]},
    {"compound": "CN1CCCC1c1cccnc1", "note": "(stereo not drawn) [nicotine]", "values": [
      {"measurement": "acute oral LD50 of nicotine", "setting": "mice [6]", "result": "about 3.3 mg/kg BW"},
      {"measurement": "acute oral LD50 of nicotine", "setting": "rats [7]", "result": 50, "unit": "mg/kg"},
      {"measurement": "yellowing on exposure to atmosphere", "setting": "[3]; exposed to atmosphere for 24 hours", "result": "yellowing was observed sooner than (S)-6-Methylnicotine"}
    ]}
  ]
}
